In US4943580A, “Anti-histaminic benzimidazole, imidazopyridine and purine derivatives” (Janssen Pharmaceutica N.V., priority 1989, dated 1990):

tested on: compound 48/80-induced lethality; assay: Protection of rats from compound 48/80-induced lethality; type: in vivo, rat (male, inbred Wistar strain); conditions: Rattus norvegicus; rats treated subcutaneously or orally 1 hour before compound 48/80 0.5 mg/kg intravenously; 50% of animals protected; survival after 4 hours; read-out: Compound 48/80 lethality test in rats-ED50
From the text: Protection of rats from compound […] lethality
Compound 48/80, a mixture of oligomers obtained by condensation of 4-methoxy-N-methylbenzeneethanamine and formaldehyde has been described as a potent histamine releasing agent (Int. Arch. Allergy, 13, 336 (1958)). The protection from compound 48/80-induced lethal circulatory collapse appears to be a simple way of evaluating quantitatively the antihistaminic activity of test compounds. Male rats of an inbred Wistar strain, weighing 240-260 g were used in the experiment. After overnight starvation the rats were transferred to conditioned laboratories (temp.=[…], relative humidity=65±5%). The rats were treated subcutaneously or orally with a test compound or with the solvent (NaCl solution, 0.9%). One hour after treatment there was injected intravenously compound 48/80, freshly dissolved in water, at a dose of 0.5 mg/kg (0.2 ml/100 g of body weight). In control experiments, wherein 250 solvent-treated animals were injected with the standard dose of compound 48/80, not more than 2.8% of the animals survived after 4 hours. Survival after 4 hours is therefore considered to be a safe criterion of a protective effect of drug administration. Said ED50 -values are the values in mg/kg body weight at which the tested compounds protect 50% of the tested animals against compound 48/80-induced lethality.

SMILES | ED50 [mg/kg]
CCOCCn1c(NC2CCN(C)CC2)nc2cccnc21 [Compound 108, 3-(2-ethoxyethyl)-N-(1-methyl-4-piperidinyl)-3H-imidazo[4,5-b]pyridin-2-amine] | 0.04
CCOCCn1c(CC2CCN(CCn3c(=O)[nH]c4ccccc43)CC2)nc2cccnc21 [Compound 80] | 0.02
CCOCCn1c(NC2CCN(CCCC(=O)c3ccc(F)cc3)CC2)nc2cccnc21 [Compound 65] | 0.02
CCOCCn1c(NC2CCN(CCc3c(C)nc4sccn4c3=O)CC2)nc2cccnc21 [Compound 64] | 0.02
CCOCCn1c(CC2CCN(C)CC2)nc2cccnc21 [Compound 126] | 0.04
CCOCCn1c(NC2CCN(CCc3c(C)nc4ccccn4c3=O)CC2)nc2cccnc21 [Compound 46] | 0.01
CCOCCn1c(CC2CCN(CCc3ccc(OC)cc3)CC2)nc2cccnc21 [Compound 59] | 0.02
CCOCCn1c(NC2CCN(CCc3scnc3C)CC2)nc2cccnc21 [Compound 67] | 0.02
CCOCCn1c(NC2CCN(CCCOc3ccc(F)cc3)CC2)nc2cccnc21 [Compound 63] | 0.04
CCOCCn1c(CC2CCN(CCNc3ncccn3)CC2)nc2cccnc21 [Compound 131, N-[2-[4-[[3-(2-ethoxyethyl)-3H-imidazo[4,5-b]pyridin-2-yl]methyl]-1-piperidinyl]ethyl]-2-pyrimidinamine] | 0.02
CCOCCn1c(NC2CCN(CCc3ccccn3)CC2)nc2cccnc21 [Compound 151, 3-(2-ethoxyethyl)-N-[1-[2-(2-pyridinyl)ethyl]-4-piperidinyl]-3H-imidazo-[4,5-b]pyridin-2-amine] | 0.02
CCOCCn1c(NC2CCN(CCn3c(=O)[nH]c4ccccc4c3=O)CC2)nc2cccnc21 [Compound 68] | 0.04
CCOCCn1c(NC2CCN(CCc3c(C)nc4n(c3=O)CCCC4)CC2)nc2cccnc21 [Compound 70] | 0.04
CCOCCn1c(NC2CCN(CCOc3ncccn3)CC2)nc2cccnc21 [Compound 133, 3-(2-ethoxyethyl)-N-[1-[2-(2-pyrimidinyloxy)ethyl]-4-piperidinyl]-3H-imidazo-[4,5-b]pyridin-2-amine] | 0.02
CCOCCn1c(NC2CCN(CCNC(=O)c3cccn3C)CC2)nc2cccnc21 [Compound 143, N-[2-[4-[[3-(2-ethoxyethyl)-3H-imidazo[4,5-b]pyridin-2-yl]amino]-1-piperidinyl]ethyl]-1-methyl-1H-pyrrole-2-carboxamide] | 0.02
CCOCCn1c(NC2CCN(CC)CC2)nc2cccnc21 [Compound 115] | 0.04
CCOCCn1c(NC2CCN(CCc3ccc(OC)cc3)CC2)nc2cccnc21 [Compound 45] | 0.02
CCOCCn1c(NC2CCN(CCSc3ccccc3)CC2)nc2cccnc21 [Compound 100, 3-(2-ethoxyethyl)-N-[1-[2-(phenylthio)ethyl]-4-piperidinyl]-3H-imidazo [4,5-b]-pyridin-2-amine] | 0.04
CCOCCn1c(CC2CCN(CCc3c(C)nc4ccccn4c3=O)CC2)nc2cccnc21 [Compound 62] | 0.04
CCOCCn1c(NC2CCN(CCNC(=O)c3ccoc3)CC2)nc2cccnc21 [Compound 142, N-[2-[4-[[3-(2-ethoxyethyl)-3H-imidazo[4,5-b]pyridin-2-yl]amino]-1-piperidinyl]ethyl]-3-furancarboxamide] | 0.04
CCOCCn1c(NC2CCN(CCNc3ncccn3)CC2)nc2cccnc21 [Compound 132, 3-(2-ethoxyethyl)-N-[1-[2-(2-pyrimidinylamino)ethyl]-4-piperidinyl]-3H-imidazo[4,5-b]pyridin-2-amine] | 0.01
CCOCCn1c(CC2CCN(CCNC(=O)c3nccs3)CC2)nc2cccnc21 [Compound 144, N-[2-[4-[[3-(2-ethoxyetyyl)-3H-imidazo[4,5-b]pyridin-2-yl]methyl]-1-piperidinyl]ethyl]-2-thiazolecarboxamide] | 0.02
CCOCCn1c(CC2CCN(CCOc3ncccn3)CC2)nc2cccnc21 [Compound 134, 3-(2-ethoxyethyl)-2-[[1-[2-(2-pyrimidinyloxy)ethyl]4-piperidinyl]methyl]-3H-imidazo-[4,5-b]pyridine] | 0.005
CCOCCn1c(CC2CCN(CCc3ccccn3)CC2)nc2cccnc21 [Compound 152, 3-(2-ethoxyethyl)-2-[[1-[2-(2-pyridinyl)ethyl]-4-piperidinyl]methyl]-3H-imidazo-[4,5-b]pyridine] | 0.005
CCOCCn1c(NC2CCN(CCNc3nc4cnccc4[nH]3)CC2)nc2cccnc21 [Compound 141, 3-(2-ethoxyethyl)-N-[1-[2-[(1H-imidazo[4,5-c]pyridin-2-yl)amino]ethyl]-4-piperidinyl]-3H-imidazo[4,5-b]pyridin-2-amine] | 0.02
CCOCCn1c(NC2CCN(CCc3cc4ccccc4oc3=O)CC2)nc2cccnc21 [Compound 82] | 0.04
CCOCCn1c(NC2CCN(CCCC(C)=O)CC2)nc2cccnc21 [Compound 61] | 0.04
